# Data taken from ChEMBL document CHEMBL3769369, “Ligand-based modeling of diverse aryalkylamines yields new potent P-glycoprotein inhibitors” (Eur J Med Chem, 2016).
# Legend:
# [1] = Inhibition of P-gp in human MCF7/D70 cells assessed as decrease in doxorubicin IC50 at 10 uM after 72 hrs by MTT assay (Rvb doxorubicin alone IC50 = 0.906 +/- 0.02 uM); type: cell-based; settings: MCF7/D70, 72 h
# [2] = Cytotoxicity against human fibroblast cells assessed as viable cells at 50 uM by trypan blue staining based assay; type: cell-based; settings: read-out: Activity
# [3] = Cytotoxicity against human fibroblast cells assessed as viable cells at 10 uM by trypan blue staining based assay; type: cell-based; settings: read-out: Activity
# MCF7 [4] = assay: Cytotoxicity against human MCF7 cells assessed as viable cells at 10 uM by trypan blue staining based assay; type: functional; settings: read-out: Activity
# [5] = Inhibition of P-gp in human MCF7/D70 cells assessed as decrease in doxorubicin IC50 at 1 uM after 72 hrs by MTT assay (Rvb doxorubicin alone IC50 = 0.906 +/- 0.02 uM); type: cell-based; settings: MCF7/D70, 72 h
# [6] = Inhibition of P-gp in human MCF7/D70 cells assessed as decrease in doxorubicin IC50 at 50 uM after 72 hrs by MTT assay (Rvb doxorubicin alone IC50 = 0.906 +/- 0.02 uM); type: cell-based; settings: MCF7/D70, 72 h
# MCF7 [7] = assay: Cytotoxicity against human MCF7 cells assessed as viable cells at 50 uM by trypan blue staining based assay; type: functional; settings: read-out: Activity
SMILES,IC50 [1],viability at 50 µM [2],viability at 10 µM [3],viability at 10 µM (MCF7 [4]),IC50 [5],IC50 [6],viability at 50 µM (MCF7 [7])
Fc1ccc(N/C2=N/CC/N=C(/Nc3ccc(F)cc3)SS2)cc1,320 nM,57%,100%,92%,320 nM,190 nM,58%
C=CCN1CC[C@]23c4c5ccc(O)c4O[C@H]2C(=O)CC[C@@]3(O)[C@H]1C5 [NALOXONE],850 nM,100%,100%,74%,–,360 nM,67%
COc1cc(C2CNCc3cc(O)c(OC)cc32)ccc1O (configuration not stated),–,100%,100%,75%,–,830 nM,80%
COc1cc(C2CNCc3cc(OC)c(O)cc32)ccc1O (configuration not stated),840 nM,90%,100%,76%,–,610 nM,73%
N=c1[nH]c(=O)n(CCCCOc2ccccc2)cc1-c1ccc(Cl)c(Cl)c1,570 nM,56%,100%,77%,–,240 nM,58%
O=C1NCN(c2ccccc2)C12CCN(CCCS(=O)(=O)c1ccccc1)CC2,1140 nM,100%,100%,77%,–,240 nM,80%
CN1CCc2ccccc2C1Cc1cc(OCc2ccccc2)ccc1N (configuration not stated),–,16%,82%,74%,–,–,6%
COc1cc2c(cc1OC)C1C(CO)c3ccc4c(c3CN1CC2)OCO4 (configuration not stated),–,75%,100%,90%,–,570 nM,72%
CCN(CC)CCC(=O)NC1c2ccc(Cl)cc2Oc2c(C)cccc21 (configuration not stated),–,13%,100%,100%,–,–,9%
CC1CN(CC2COc3ccccc3O2)C(C)CN1CC1COc2ccccc2O1 (configuration not stated),1450 nM,77%,100%,80%,–,580 nM,53%
CC1(C)CCN(CCOC(=O)C(c2ccccc2)C2C=CCCC2)C1 (configuration not stated),–,59%,100%,98%,–,550 nM,53%
CCCNCCC(O)c1cc(C(F)(F)F)nc2c(C(F)(F)F)cccc12 (configuration not stated),–,19%,67%,9%,–,–,6%
ClCCNCc1cccc(Nc2ccnc3cc(Cl)ccc23)c1,–,48%,96%,86%,–,–,15%
CC1CN(CCOC(=O)C(c2ccccc2)C2C=CCCC2)CC1C (configuration not stated),–,100%,100%,89%,–,2120 nM,74%
CCC1=C(CC2NCCc3ccccc32)CC2c3cc(OC)c(OC)cc3CCN2C1 (configuration not stated),–,16%,46%,31%,–,–,5%
CCC(C)N1CN(c2ccccc2)C2(CCN(CC3COc4ccccc4O3)CC2)C1=O (configuration not stated),–,70%,100%,93%,–,–,11%
CC1(CN2CCCC2)CCC(NC(=O)C(c2ccccc2)c2ccccc2)C(C)(C)O1 (configuration not stated),1730 nM,54%,88%,100%,–,140 nM,51%

SMILES,IC50 [1],viability at 50 µM [2],viability at 10 µM [3],viability at 10 µM (MCF7 [4]),IC50 [5],IC50 [6],viability at 50 µM (MCF7 [7])
COc1ccc(C2NC(C(=O)O)Cc3c2[nH]c2ccccc32)cc1OC (configuration not stated),–,100%,92%,89%,–,1180 nM,92%
COc1ccc(CCN(C)CCCC(C#N)(c2ccc(OC)c(OC)c2)C(C)C)cc1OC (configuration not stated) [VERAPAMIL],200 nM,–,–,–,–,–,–
Cc1ccc(N2CCN(CCCOC(=O)Nc3cccc4ccccc34)CC2)cc1,–,89%,89%,93%,–,830 nM,70%
CCCC(=O)N(C)C1=Nc2ccc(Cl)cc2C(c2ccccc2)=[N+]([O-])C1,380 nM,68%,100%,95%,390 nM,490 nM,70%
O=C1OCCN1N1C(=O)CC2(CCN(Cc3ccccc3)CC2)C1=O,–,100%,100%,95%,–,510 nM,89%
CN1CN(c2ccccc2)C2(CCN(CCc3cc4ccccc4o3)CC2)C1=O,–,21%,92%,31%,–,–,14%
NC(c1ccc2c(c1)OCO2)C(O)c1ccc2c(c1)OCO2 (configuration not stated),–,82%,100%,74%,–,2520 nM,72%
O=C1CN(CCN2CC(=O)N(Cc3ccccc3)C(=O)C2)CC(=O)N1Cc1ccccc1,850 nM,82%,100%,76%,–,240 nM,69%
C[N+]1(CCOC(=O)C(c2ccccc2)C2C=CCC2)CCCC12CCCCC2 (configuration not stated),–,81%,100%,89%,–,1550 nM,75%
COc1cc2c(cc1OC)C(c1ccc(O)c(O)c1)CNC2 (configuration not stated),–,97%,100%,93%,–,800 nM,97%
Cc1nn(C(=O)Cc2ccccc2)c2c1C(c1ccc(O)cc1)SC(=N)N2 (configuration not stated),–,63%,100%,96%,–,2070 nM,55%
COc1ccc(Nc2ccnc3cc(Cl)ccc23)cc1CNCC(C)C,–,17%,12%,26%,–,–,6%
CCN(Cc1ccccc1)C(=O)C1CCN(Cc2c[nH]c3ccccc23)CC1,–,21%,56%,48%,–,620 nM,13%
CN(C)C1C(c2ccccc2)S(=O)(=O)C1C1CS(=O)(=O)C1c1ccccc1 (configuration not stated),–,19%,39%,68%,–,–,5%
CN/N=C(\C)C(CN1CCCCC1)C(C1=C(O)c2ccccc2OC1)c1ccccc1 (configuration not stated),–,75%,100%,100%,–,1080 nM,97%
CC1CN(CCOC(=O)C(c2ccccc2)C2C=CCCC2)C(C)(C)C1 (configuration not stated),–,36%,84%,93%,–,–,61%
Cc1ccc2c(c1)C(NC(Cc1ccccc1)C(=O)O)C(Cl)C(=O)O2 (configuration not stated),–,100%,94%,75%,–,850 nM,74%
